The values below come from US11273201B2, “Compositions and methods for inducing thrombopoiesis” (Hadasit Medical Research Services and Development Ltd., priority 2013, dated 2022).

Test [1] deals with LAMA-84 cells. Nature of the test: PMA-induced megakaryocytic differentiation of LAMA-84 cells (morphology, CD41/CD71 flow cytometry, PI ploidy). In kind it is cell-based, Human. As to the method: LAMA-84 cells were maintained in RPMI1640 containing 10% fetal calf serum, 100 U/ml penicillin, 100 μg/ml streptomycin and 2 mM glutamine. To induce differentiation, the cell culture was supplemented with 0.6-5 ng/ml PMA or 50 μM Hemin and cells were harvested and analyzed 1-5 days following treatment.
(§1) To determine the extent of maturation toward MKs 1×10^6 cultured cells (LAMA-84 or CD34+ cells) were washed and then labeled with anti-CD41-FITC (GpIIb/IIIa, BD Bioscience, USA), or anti CD71-FITC or combination of anti-CD33-FITC, anti-CD41-PE, and CD34-APC (Beckman Coulter, USA) and analyzed using FACScalibur (Becton Dickinson, USA) for the percentage of CD41^+ cells generated.
(§2) To determine the amount of ploidy, differentiated LAMA-84 cells were fixed overnight in 75% ethanol at 4° C., labeled with propidium iodide (PI, 50 μg/ml) and analyzed using FACScalibur. Fourteen day differentiated CD34+ were analyzed quantitatively under a microscope following May Grumwald/Giemsa staining for the number of nuclei per cell. Only cells with MK morphology were analyzed.
LAMA-84 cell differentiation following PMA treatment was studied via morphological staining of the cells with May Grunwald/Giemsa and via flow cytometry analysis of CD41 (MK marker) and CD71 (erythroid marker) expression. Moreover, ploidy, a marker of MK differentiation, was also determined by flow cytometry using propidium iodide (PI). A range of PMA concentrations was tested and differentiation was obtained at 0.6-10 ng/ml PMA.
Background: A flow cytometer gives signals particle by particle.

The test system of test [2] is Livin, Survivin, XIAP. Briefly: Western blot of IAP family proteins during LAMA-84 differentiation. The class given is cell-based, Human. On the procedure:
Whole cell lysates were prepared from 0.25-1×10^6 cells using 100 μl lysis buffer [20 mM Tris-HCl, 2 mM EDTA, 6 mM β-Mercaptoethanol, 1% Nonidet P-40 (NP-40), 0.1% SDS and protease inhibitors] at 4° C. for 20 min, with vigorous vortex mixing. Antibodies used were: monoclonal antibody against Livin (clone 88C570) (Imgenex, USA) diluted 1:3000 and Survivin 6E4 monoclonal antibody (Cell Signaling Technology, USA), followed by Envision-HRP (DAKO, Denmark) as a secondary antibody; Polyclonal antibody against XIAP (Cell Signaling Technology, USA), followed by anti-rabbit IgG HRP-linked antibody (Cell Signaling Technology, USA) as a secondary antibody. For immunoprecipitation, equal amounts of protein lysates were pre-cleared with Protein A/G-Agarose (Santa Cruz, USA) together with 1 μg of mouse IgG. Livin was immunoprecipitated from the cleared lysates (using clone 88C570) and the immune complexes were precipitated with Protein A/G-Agarose.
The expression of anti-apoptotic proteins of the […] (IAPs) during the differentiation of LAMA-84 cells towards MKs was analyzed by Western blot analysis. […] Note that in contrast to Livin, the level of Survivin decreased when cells were treated with PMA (FIG. 2E).
For orientation: Immunoblotting shows a protein as a band on a membrane.

The test system of test [3] is LAMA-84 cells. Nature of the test: Release of CD41+ platelet-like particles from LAMA-84 cultures (flow cytometry). In kind it is cell-based, Human. As to the method:
(§3) Platelets release into the differentiated cultures was assessed via flow cytometry analysis of the supernatants. Specifically, the culture medium was collected and centrifuged at 150×g for 20 minutes to remove the nucleated cells. The supernatant was then centrifuged at 500×g for 20 minutes to pellet the platelets. Sediments containing platelets and platelet-like particles were resuspended in culture medium in 500 μl aliquots and labeled using anti-CD41-FITC. Cells were analyzed by FACScalibur for CD41 expression and log amplification of forward scatter (FCS) and side scatter (SSC).

In test [4] the test system is LAMA-84 derived PLPs. Briefly: Aggregation of LAMA-84 derived platelet-like particles (AGGRAM aggregometer). In kind it is cell-based, Human. The settings on record: PMA treated LAMA-84 culture-derived PLPs. As to the method:
Platelets and Platelet like particles generated from platelets-poor plasma e.g. LAMA-84 differentiated cells were tested for their functionality in aggregation assays using an AGGRAM aggregometer (Helena Laboratories, Beaumont, Tex.) according to the manufacturer's instructions using various agonists: adenosine diphosphate (ADP) (11 μM), arachidonic acid (AA) (1.6 μM), Epinephrine (50 μM), Ristocetin (1.6 mM) (Diamed AG, Morat, Switzerland) or collagen (5 μg/ml) (Helena Laboratories, Beaumont, Tex.).

In test [5] the test system is caspase-3. Briefly: Caspase-3 activity in LAMA-84 cell extracts (CaspACE colorimetric). In kind it is cell-based, Human. The settings on record: day 4, PMA treated LAMA-84 stably over-expressing construct. As to the method: Extracts from 1×10^6 cells were prepared by the freeze-thaw method assayed for caspase-3 activity using CaspACE™ Assay System, Colorimetric (Promega, USA), according to manufacturer's instructions.
To address the mechanism of action of Livin in MKs differentiation, LAMA-84 cells were stably transfected to over-express Livin and the expression and effects of Livin protein during MKs differentiation were tested by means of Western blot analysis, caspase-3 activity, CD41 expression evaluated by flow cytometry and platelets functionality evaluated by aggregation assay (FIGS. 4A-4D). Specifically, control LAMA-84 cells (EV, empty vector) and LAMA-84 cells stably over expressing wild-type Livin or Livin mutant lacking pro-apoptotic activity (LivinRING) were treated with PMA for 5 Days. Cells were harvested at 12, 24, 48 and 96 hours for evaluation.

In test [6] the test system is Human CD34+ cells. Nature of the test: Megakaryocyte differentiation of cord blood CD34+ cells with SCF and TPO (CD41, CD33, nuclei number, Western blot). The class given is cell-based. As to the method: Human CD34+ cells were cultured in Iscove's medium (IMDM) (1×10^5 cells/well) and induced to differentiate into MKs in the presence of 10 ng/ml stem cell factor (SCF) and 50 ng/ml thrombopoietin (TPO), freshly supplemented every 3 days. Cells were harvested and analyzed on day 14.
293T cells were infected to produce the virus and supernatant from 48 and 72 hours were infected into both LAMA-84 and CD34+ cells during their differentiation induction phase. In order to over-express Livin both LAMA-84 and CD34+ cells were infected following 1 day of differentiation with pWZL IRES-blasticidin vector expressing wild-type Livin (Livin β), LivinRING (Livin β RING), or empty vector (EV). For down-regulating expression of endogenous Livin, LAMA-84 were transfected by electroporation with pSUPER-Livin-2 (Livin siRNA) or pSUPER-luc (control siRNA) vectors^35 together with pWZL IRES-blasticidin 1 day following differentiation initiation. For down-regulating expression of endogenous Livin in CD34+ cells, cells were infected 1 day after differention with supernatant containing the pSUPER viruses generated by 293T cells.
as §1, §2
To investigate the effect of Livin on primary MK progenitors, human CD34+ cells isolated from cord blood samples, were transduced with Livin, LivinRING or control empty vector and grown for 14 days under MK differentiating conditions with the addition of stem cell factor (SCF) and thrombopoeitin (TPO)^41. At the terminal stages of primary MKs maturation CD34+ cell cultures were examined morphologically, analyzed for CD41 expression and polyploidy via flow cytomery, and Livin expression and cleavage via Western Blot.

Test [7] concerns Human CD34+ cells. Nature of the test: CD41+ platelets released from differentiated CD34+ cultures (flow cytometry). The class given is cell-based. The settings on record: day 14, SCF and TPO. As to the method: as §3
The following experiments evaluated whether functional platelets were generated from the human CD34^+ cell cultures that were transduced with Livin, LivinRING or control empty vector and grown for 14 days under MK differentiating conditions with the addition of SCF and TPO. Platelets released into the media were characterized for CD41 expression and functionality by CD62P up regulation via flow cytometry.

For test [8], the system named is platelets derived from CD34+ cultures. Nature of the test: Platelet activation by CD62P expression, platelets from CD34+ cultures. The settings on record: platelets from over-expressing CD34+ cultures. The class given is cell-based, Human. On the procedure: Since the number of platelets generated from CD34+ cultures was low, platelets derived from these cultures were stimulated for 15 minutes at room temperature (RT) with ADP or AA and activation was assessed via flow cytometry analysis of CD62P (Pselectin)-PE (Beckman Coulter) expression (up regulation of CD62P implies activation).

Take `CCCCCCCCCCCCCC(=O)O[C@@H]1[C@@H](C)[C@@]2(O)[C@@H](C=C(CO)C[C@]3(O)C(=O)C(C)=C[C@@H]23)[C@@H]2C(C)(C)[C@]12OC(C)=O` [PMA, Phorbol myristate acetate]: the “Ploidy (PI flow cytometry)” value in test [1] (4 days of exposure to 5 ng/ml PMA) was “underwent polyploidization (8N, 16N and 32N)”. Further, the “CD41 expression (percent CD41 positive cells)” value in test [1] (4 days, 5 ng/ml PMA, untreated 8.8%±5.6%) was 81.9%±10%. Besides, the “Morphology (May Grunwald/Giemsa)” value in test [1] (LAMA-84 cells after PMA induction) was “marked increase in cell size and extensive multinuclearity”. The “PMA concentration at which differentiation was obtained” value in test [1] (LAMA-84 cells, range of PMA concentrations tested) was in the range of 0.6 to 10 ng/mL. Moreover, the “Level of full length XIAP” value in test [2] (PMA differentiation, cleaved 30 kDa fragment appears) is given as “dose dependent significant decrease”. The Livin protein expression entry in test [2] (PMA-induced differentiation, not detected in untreated cells) is “up-regulated”. The Survivin level entry in test [2] (cells treated with PMA) is given as “decreased”. Further, the “Percentage of CD41+ PLPs released to culture medium” value in test [3] (after incubation with PMA, untreated 6.5%±2.2%) is 24.3%±3.6%. Further, the “Aggregation of PLPs in response to Epinephrine, collagen, ADP” value in test [4] is given as “aggregated”.

As to Hemin, the CD41 expression levels result in test [1] (Hemin, erythroid differentiation negative control) is “did not increase CD41 expression levels”. Further, the “Levels of IAP family proteins tested” value in test [2] (Hemin negative control) is reported as “did not regulate the levels”.

B1: wild-type Livin: Livin β (SEQ ID NO: 5 cDNA) over-expressed from pWZL IRES-blasticidin retroviral vector (protein, listed as Homo sapiens)
chain: MGPKDSAKCLHRGPQPSHWAAGDGPTQERCGPRSLGSPVLGLDTCRAWDHVDGQILGQLRPLTEEEEEEGAGATLSRGPAFPGMGSEELRLASFYDWPLTAEVPPELLAAAGFFHTGHQDKVRCFFCYGGLQSWKRGDDPWTEHAKWFPSCQFLLRSKGRDFVHSVQETHSQLLGSWDPWEEPEDAAPVAPSVPASGYPELPTPRREVQSESAQEPGARDVEAQLRRLQEERTCKVCLDRAVSIVFVPCGHLVCAECAPGLQLCPICRAPVRSRVRTFLS
Regarding B1, in test [2] (LAMA-84 over-expressing wild-type Livin, PMA, 96 h), the “Cleavage of Livin (Western blot)” value is given as “underwent cleavage only at the terminal stage of differentiation”. Also, in test [3] (day 4, PMA treated LAMA-84 over-expressing construct), the “Number of CD41+ PLPs versus control (empty vector) cells” value is given as “produced more PLPs”. Also, the Caspase-3 enzyme activity entry in test [5] is on record as “induced caspase-3 activation”. Moreover, in test [6] (day 14, SCF and TPO, p=0.029), the “Increase in percentage of CD41 stained cells compared to empty vector” value was determined as 3.7±1 fold. Further, the “CD33 expression of differentiated CD41+ cells” value in test [6] (day 14, n=9, control cells 7.4±6.9%) was found to be 22.6±39.8%. Also, the “Multi-nucleated MKs (≥4 nuclei)” value in test [6] (day 14, versus LivinRING or empty vector (p=0.01 and 0.02)) was “significant increase”. For the same molecule, the “Livin and tLivin protein levels (Western blot)” value in test [6] (day 14, versus naive and empty vector CD34+ cultures) was “robust levels”. Also, the “Platelets produced (CD41+) compared to empty vector control” value in test [7] was 4.3±1 fold. The “Platelet activity in response to arachidonic acid (CD62P up regulation)” value in test [8] was “demonstrated activity”.
